Where two headings read alike, the source gives them in different places. Starred links: 1 amine or outer side, 2 acyl side, 3 side chain; linkers in the order of their positions; H or OH if unused. Positions of bridges follow the written chain, without caps; N, C: chain ends. Non-standard residues stand in square brackets, D forms with d. Residues, ends and D or L forms follow the SMILES beside them. Groups on a side chain read outwards from the residue. *: point of attachment. Trp(1-Me) = Cn1cc(C[C@H](N)C(=O)O)c2ccccc21; Abu(4-yl) = O=C([C@H](CC[*:3])N[*:1])[*:2]; C18 diacid = O=C(O)CCCCCCCCCCCCCCCCC(=O)*; γGlu = O=C(O)[C@H](CCC(=O)[*:2])N[*:1]; AEEA = NCCOCCOCC(=O)O; Sar = CNCC(=O)O

One series in a line: in vivo. The arrangement: species or system Cynomolgus monkeys (Macaca fascicularis). As to conditions: male, cynomolgus monkey, sc, 1840 nmol/kg, t½. How it is done: Healthy male Cynomolgus monkeys (Macaca fascicularis) received single subcutaneous administrations of each test substance. Compounds were formulated in 20 mM phosphate adjusted with NaOH to pH 7.5 and mannitol for isotonicity and dosed at 1840 nmol/kg. Blood was collected from a femoral vein from each animal at the following times: Pre-dose, 1, 2, 4, 8, 24, 48, 72, 96 and 120 h (10 sampling times). Blood was collected into serum separation tubes and allowed to clot at room temperature. The tubes were centrifuged and resulting serum was aliquoted and snap-frozen over dry-ice and stored at nominally −80° C. until analysis. All NHP studies were performed in accordance with animal welfare laws and regulations, including approval of the study by a local ethical review process.
In order to assess pharmacokinetic half-life (t %/), serum samples isolated from non-human primates at specific time points after dosing were analysed for total drug compound after sample preparation by solid phase extraction (SPE) and liquid chromatography mass spectrometry (LC-MS/MS) using analogue internal standard. Single measurement of serum concentrations were used for calculation of the pharmacokinetic parameters using the non-compartmental approach in Phoenix WinNonlin 6.3. Plasma terminal elimination half-life (ty) was determined as In(2)/λz where λz is the magnitude of the slope of the log linear regression of the log concentration versus time profile during the terminal phase.

Series [1] is classed as physicochemical. Conditions: 50 mg/mL peptide; for Covalent oligomer content after 14 days 40° C. (%), F1 / Purity after 14 days 40° C. (%), F1: F1: 20 mM phosphate pH 5.5; for Covalent oligomer content after 14 days 40° C. (%), F1 / Covalent oligomer content after 14 days 40° C. (%), F2: denaturing SEC; for Purity after 14 days 40° C. (%), F1 / Purity after 14 days 40° C. (%), F2 / Purity after 14 days 40° C. (%), F3: normalized purity (HPLC). How it is done: Chemical stability of compstatin analogues with cystathionine or disulfide bridge. Stability was assessed in three formulations at 50 mg/mL peptide, F1:20 mM phosphate pH 5.5, F2:20 mM phosphate pH 6.5 and F3:20 mM phosphate pH 7.5. The formulations were prepared by direct dissolution of peptide from lyophilized portions in the respective formulations. pH was adjusted to target with 1 M NaOH and 1 M HCl. Chemical stability was assessed under accelerated conditions (14 days, 40° C.) and evaluated as change in purity by reverse phase HPLC, and change in covalent oligomer content by denaturing SEC. The formulations were placed at 40° C. with analysis points at T=0, 7 and 14 days. On each time point a small volume was extracted and diluted to 2 mg/mL and tested by reverse phase HPLC and denaturing SEC. Purity was assessed by reverse phase HPLC using an Ultimate 3000 system for binary gradient application equipped with a Kinetix C18 column (cat. no. 00F-4462-Y0, 150 mm×3 mm, 2.6 μm) run at 0.5 ml/min with a gradient of buffer A (0.3% TFA, aq.) and buffer B (0.3% TFA, 90% MeCN, aq.) gradient from 40% B to 70% B over 20 min. Detection was done using a diode array detector set to 220 nm. Covalent oligomer formation was assessed by denaturing SEC (size exclusion chromatography) using an Ultimate 3000 system equipped with a TSKgel SuperSW 2000 column (cat. no. 818674, 300 mm×3 mm, 4 μm) run at 0.5 ml/min with isocratic flow of buffer A (0.1% TFA, 45% MeCN, aq.), 10 min. Detection was done using a diode array detector set to 215 nm. Compounds 126 and 156 were carefully weighed out and dissolved in formulations F1, F2 and F3 to a target concentration of 50 mg/mL. Once visually dissolved, concentration was confirmed by absorbance at 280 nm, and samples were placed in stability at 40° C. Samples for analysis were extracted on T=0, 7 and 14 days from a 40° C. climate chamber. The extracted volume was dissolved 1:25 (final concentration: 2 mg/mL) in 20 mM phosphate pH 5.5, 6.5 or 7.5 and measured by reverse phase HPLC and denaturing SEC by injection of 0.4 μL (column load […]). The resulting chromatograms were integrated to determine chemical purity by reverse phase HPLC and covalent oligomer content by denaturing SEC.

Series [2] concerns classical complement pathway. In words: In vitro haemolysis assay (inhibition of classical complement pathway). The class given is cell-based, human. As to conditions: Table 3; human serum, sensitized sheep red blood cells; read-out: IC50[nM], in vitro analysis of inhibition of hemolysis. The gist of the method: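 Serially diluted compound (9 points) was preincubated 15 min at room temperature with diluted human serum, titrated per batch to give 70-90% maximal haemolysis, in Tris/casein buffer pH 7.4 with Mg2+/Ca2+. Antibody-sensitized sheep erythrocytes were then added for 30 min at 37° C, and the reaction was stopped with EDTA. Haemolysis was read at A405, with IC50 from 4PL fit.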

In “in vivo”, `CC[C@H](C)[C@@H]1NC(=O)[C@@H](NC(=O)[C@H](Cc2ccccc2)NC(=O)[C@H](CCC(=O)O)NC(=O)[C@H](CO)NC(C)=O)CSCC[C@@H](C(=O)N(C)CC(=O)N[C@@H](CCC(=O)O)C(=O)NCCOCCOCC(=O)NCCOCCOCC(=O)N[C@@H](CCCCNC(=O)CC[C@H](NC(=O)CNC(=O)CC[C@H](NC(=O)CCCCCCCCCCCCCCCCC(=O)O)C(=O)O)C(=O)O)C(N)=O)NC(=O)[C@H](CCCNC(=N)N)NC(=O)[C@H](Cc2c[nH]cn2)NC(=O)[C@H](CCC(=O)O)NC(=O)CN(C)C(=O)[C@H](Cc2c[nH]c3ccccc23)NC(=O)[C@H](CC(=O)O)NC(=O)[C@H](CCC(N)=O)NC(=O)[C@H](Cc2cn(C)c3ccccc23)NC1=O` [Compound 147, Ac-SEFA(1)I[1-Me-Trp]QDW[Sar]EHRhC(1)[Sar]E[Peg3][Peg3]-K([17-carboxy-heptadecanoyl][γGlu]G[γGlu])-NH2] (Ac-SEFCI[Trp(1-Me)]QDW[Sar]EHR[Abu(4-yl)][Sar]E[AEEA][AEEA]K([γGlu-Gly-γGlu-C18 diacid])-NH2; thioether 4-14) showed a half-life of 4.5 days. Besides, in series [1], the “Covalent oligomer content after 14 days 40° C. (%), F1” value (“Covalent oligomer content … (%), F1” below) is given as 0.6% and the “Purity after 14 days 40° C. (%), F1” value amounted to 98%. Also, in series [1] (F2: 20 mM phosphate pH 6.5), the “Covalent oligomer content after 14 days 40° C. (%), F2” value (“Covalent oligomer content … (%), F2” for short) turned out to be 0.1% and the “Purity after 14 days 40° C. (%), F2” value turned out to be 99%. In series [1] (F3: 20 mM phosphate pH 7.5), the “Covalent oligomer content … (%), F2” value worked out at 0.2% and the “Purity after 14 days 40° C. (%), F3” value is on record as 99%. In series [2], the IC50 is less than 100 nM.
In the series “in vivo”, `CC[C@H](C)[C@@H]1NC(=O)[C@@H](NC(=O)[C@H](Cc2ccccc2)NC(=O)[C@H](CCC(=O)O)NC(=O)[C@H](CO)NC(C)=O)CSSC[C@@H](C(=O)N[C@H](C(=O)N[C@@H](CCC(=O)O)C(=O)NCC(=O)N[C@@H](CCC(=O)O)C(=O)NCCOCCOCC(=O)N[C@@H](CCC(=O)O)C(=O)N[C@@H](CO)C(=O)N[C@@H](CCCCNC(=O)CC[C@H](NC(=O)CCCCCCCCCCCCCCCCC(=O)O)C(=O)O)C(N)=O)[C@@H](C)O)NC(=O)[C@H](CCCNC(=N)N)NC(=O)[C@H](Cc2c[nH]cn2)NC(=O)[C@H](CCC(=O)O)NC(=O)CNC(=O)[C@H](Cc2c[nH]c3ccccc23)NC(=O)[C@H](CC(=O)O)NC(=O)[C@H](CCC(N)=O)NC(=O)[C@H](Cc2cn(C)c3ccccc23)NC1=O` [Compound 142] (Ac-SEFCI[Trp(1-Me)]QDWGEHRCTEGE[AEEA]ESK([γGlu-C18 diacid])-NH2; disulfide 4-14) gave a half-life of 5.96 days. Besides, in series [1], the “Covalent oligomer content … (%), F1” value turned out to be 63% and the “Purity after 14 days 40° C. (%), F1” value is 50%. In addition, in series [1] (F2: 20 mM phosphate pH 6.5), the “Covalent oligomer content … (%), F2” value was determined as 64% and the “Purity after 14 days 40° C. (%), F2” value stood at 37%. Further, in series [1] (F3: 20 mM phosphate pH 7.5), the “Covalent oligomer content … (%), F2” value amounted to 56% and the “Purity after 14 days 40° C. (%), F3” value turned out to be 45%. The IC50 in series [2] was less than 100 nM.
In turn, `CC[C@H](C)[C@@H]1NC(=O)[C@@H](NC(=O)[C@H](Cc2ccccc2)NC(=O)[C@H](CCC(=O)O)NC(=O)[C@H](CO)NC(C)=O)CSCC[C@@H](C(=O)N(C)CC(=O)N[C@@H](CCC(=O)O)C(=O)NCC(=O)N[C@@H](CCC(=O)O)C(=O)NCCOCCOCC(=O)N[C@@H](CCC(=O)O)C(=O)N[C@@H](CO)C(=O)N[C@@H](CCCCNC(=O)CC[C@H](NC(=O)CNC(=O)CC[C@H](NC(=O)CCCCCCCCCCCCCCCCC(=O)O)C(=O)O)C(=O)O)C(N)=O)NC(=O)[C@H](CCCNC(=N)N)NC(=O)[C@H](Cc2c[nH]cn2)NC(=O)[C@H](CCC(=O)O)NC(=O)CN(C)C(=O)[C@H](Cc2c[nH]c3ccccc23)NC(=O)[C@H](CC(=O)O)NC(=O)[C@H](CCC(N)=O)NC(=O)[C@H](Cc2cn(C)c3ccccc23)NC1=O` [Compound 150, Ac-SEFA(1)I[1-Me-Trp]QDW[Sar]EHRhC(1)[Sar]EGE[Peg3]ES-K([17-carboxy-heptadecanoyl][γGlu]G[γGlu])-NH2] (Ac-SEFCI[Trp(1-Me)]QDW[Sar]EHR[Abu(4-yl)][Sar]EGE[AEEA]ESK([γGlu-Gly-γGlu-C18 diacid])-NH2; thioether 4-14) showed a half-life in “in vivo” of 5 days. Besides, in series [1], the “Covalent oligomer content … (%), F1” value worked out at 0.7% and the “Purity after 14 days 40° C. (%), F1” value is 98%. In series [1] (F2: 20 mM phosphate pH 6.5), the “Covalent oligomer content … (%), F2” value is reported as 0.1% and the “Purity after 14 days 40° C. (%), F2” value turned out to be 100%. For the same compound, in series [1] (F3: 20 mM phosphate pH 7.5), the “Covalent oligomer content … (%), F2” value was 0.1% and the “Purity after 14 days 40° C. (%), F3” value is listed as 100%. Further, the IC50 in series [2] is less than 100 nM.
As to `CC[C@H](C)[C@@H]1NC(=O)[C@@H](NC(=O)[C@H](Cc2ccccc2)NC(=O)[C@H](CCC(=O)O)NC(=O)[C@H](CO)NC(C)=O)CSSC[C@@H](C(=O)N(C)CC(=O)N[C@@H](CCC(=O)O)C(=O)NCC(=O)N[C@@H](C)C(=O)N[C@@H](CCCCNC(=O)COCCOCCNC(=O)CC[C@H](NC(=O)COCCOCCNC(=O)CNC(=O)CC[C@H](NC(=O)CCCCCCCCCCCCCCCCC(=O)O)C(=O)O)C(=O)O)C(N)=O)NC(=O)[C@H](CCCNC(=N)N)NC(=O)[C@H](Cc2c[nH]cn2)NC(=O)[C@H](CCC(=O)O)NC(=O)CNC(=O)[C@H](Cc2c[nH]c3ccccc23)NC(=O)[C@H](CC(=O)O)NC(=O)[C@H](CCC(N)=O)NC(=O)[C@H](Cc2cn(C)c3ccccc23)NC1=O` [Compound 119] (Ac-SEFCI[Trp(1-Me)]QDWGEHRC[Sar]EGAK([AEEA-γGlu-AEEA-Gly-γGlu-C18 diacid])-NH2; disulfide 4-14), in “in vivo”, the half-life is 5.79 days. In addition, in series [1], the “Covalent oligomer content … (%), F1” value was found to be 80% and the “Purity after 14 days 40° C. (%), F1” value stood at 23%. For the same compound, in series [1] (F2: 20 mM phosphate pH 6.5), the “Covalent oligomer content … (%), F2” value was 66% and the “Purity after 14 days 40° C. (%), F2” value is given as 31%. Also, in series [1] (F3: 20 mM phosphate pH 7.5), the “Covalent oligomer content … (%), F2” value is listed as 48% and the “Purity after 14 days 40° C. (%), F3” value is 46%. In addition, the IC50 in series [2] was less than 100 nM.
